We go through three compounds from US20220280679A1, “Prophylactic Gel Compositions and Use as Barriers to Bacterial and Viral Colonization” (Innovation Chemical and Enviromental Technologies, Inc., priority 2021, published 2022).

Like-named read-outs stand apart in the source and are kept apart here.

Holding throughout (format): cell-based
One data set deals with porcine vaginal mucosa. As to the kind of experiment: Preliminary histology score, porcine tissue (PMM). An excerpt: (§1) Active compositions are compared against a commercial control (UT20 58-164-4), a non-irritative control (PBS, phosphate buffered saline), a mild irritant control (1% TX-100, Triton X-100 surfactant).
(§2) The histology reflects a combination of the limits of each tissue models in addition to the reaction to variously added agents. SDS is clearly toxic to the tissue models and the addition of TX100 to the porcine vaginal mucosa removed the ability to assess unambiguously the effect of LPS with a surface active agent such as TX100.

The subject of a further data set is porcine nasal tissue. As to the kind of experiment: Histology scoring on porcine nasal mucosa. On the procedure:
A panel of controls for preliminary model development was assessed for biocompatibility properties on Porcine nasal tissue via MTT, and ELISA Assays.
In Table 16, histology scoring of NS A (166A) and NS B (166B) type compositions on porcine nasal mucosa. Sample 165B is a commercial control. It is of some interest that the treatments appear to result in a reduced response with or without the addition of LPS. The detergents SDS and TX100 produce a maximal response while the LPS produces a range of responses. […] The blinded participation of the Histology expert lends additional strength to the data.

The subject of a further data set is tissue explants. The data set can be described thus: MTT biocompatibility assay, relative viability of tissue explants. The protocol: Biocompatibility assays were performed by PerfectUs Biomed group (formerly Extherid) on the samples of IC-2B2 samples from Example 2, Table 2B.2
MTT assays returns relative viability of tissue through calorimetric analysis. Results are reported as percent viability compared to the non-irritative PBS control, which represents 100% viability for each of the four test conditions.
Because 100% viability for each trial is represented by the colorimetric average of the 3 explants treated with PBS. viability greater than 100% indicates UT20 formulations impart cytoprotective effects compared to the neutral PBS control.
On the technique in general: Formazan colour is commonly taken as a measure of viable cells.

For data set [1], the system named is human bladder tissue explants. The data set can be described thus: Preliminary histology score, ex-vivo human bladder tissue (HBT).
Excerpt: as §1, §2

Consider `CCCCCCCCCCCCOS(=O)(=O)[O-].[Na+]` [SDS], for which the “PMM Qualitative Score (histology)” value in the data set with porcine vaginal mucosa is 4+. Moreover, the “Ordinal score (histology)” value in the data set with porcine nasal tissue amounted to 4. Moreover, in the data set on tissue explants, the “tissue viability (MTT), irritant controls” value is on record as “decreases in tissue viability”. The “HBT Qualitative Score (histology)” value in data set [1] is reported as 4+.
Turning to lipopolysaccharide [LPS], the “Ordinal score (histology)” value in the data set with porcine nasal tissue (control agent alone) is on record as 1. For the same compound, in data set [1] (with addition of LPS), the “histology observation, bladder sections” value is “reactive damage to the bladder sections with a loss of cells on the surface of the section”.
With Triton X-100 [TX100], in the data set on porcine vaginal mucosa (LPS combined with TX100), the “histology observation, porcine vaginal mucosa” value is recorded as “lost normal structure entirely”. The “Ordinal score (histology)” value in the data set with porcine nasal tissue (control agent alone) worked out at 3. Further, the “tissue viability (MTT), irritant controls” value with tissue explants (all test conditions) is reported as “decreases in tissue viability”. In data set [1], the “histology observation, bladder sections” value is “mild cell loss and submucosal edema”.
